Measured values taken from patent publication US6656937B2, “Substituted glutarimides and their use as inhibitors of IL-12 production” (Gruenenthal, GmbH, priority 2000, dated 2003).
Values after ≈ are worked out from the molar mass of the structure shown. Counter-ions that a name gives are not always drawn.

System: IL-12 production by LPS-activated monocytes
Test: Stimulation of human monocytes with lipopolysaccharide for secretion of IL-12 (IL-12 sandwich ELISA of culture supernatants)
Format: cell-based
Conditions: CD14-positive human monocytes, 1 h preincubation with test substance, 20 μg/ml LPS from E. coli, 24 hours
Method: Human monocytes were isolated from peripheral blood mononuclear cells (PBMC) obtained by means of a Ficoll density-gradient centrifugation of heparinized whole blood. To this end, the PBMC were incubated with a monoclonal antibody directed against the monocyte-specific surface molecule CD14 and to which superparamagnetic microbeads (Miltenyi Biotech, Bergisch Gladbach) are coupled. In order for the marked monocytes to be positively selected from the mixture of cells in the PBMC, the total cell suspension was transferred to a column with a ferromagnetic carrier matrix and the column placed in a magnetic field. This caused the cells loaded with microbeads to be bonded to the carrier matrix, whilst unmarked cells passed through the column and were discarded. After removing the matrix from the magnetic field, the antibody-loaded cells were eluted by rinsing the now demagnetised column with buffer. The purity of this CD 14-positive monocyte population thus obtained was around 95 to 98%. These monocytes were incubated in a density of 10^6 cells/ml culture medium (RPMI, supplemented with 10% fetal calf serum) with the test substances dissolved in DMSO for one hour at 37° C. and 5% CO2.20 μg/ml LPS from E. coli were then added. After 24 hours, cell-free culture supernatants were taken and tested for their IL-12 content.
The concentration of IL-12 in the cell culture supernatants was determined by means of sandwich ELISA using two anti-IL-12 monoclonal antibodies (Biosource Europe, Fleurus, Belgium). A reference standard curve with human IL-12 was included. The detection limit of the IL-12 ELISA was 10 pg/ml.

| Compound | Inhibition of IL-12 production IC50 [µg/mL] | Inhibition of IL-12 production Maximum (%) |
| --- | --- | --- |
| CCN(CC)C(=O)c1ccccc1CN[C@@H]1CCC(=O)NC1=O [Example 8.11, 2-[(3R)-(2,6-dioxopiperidin-3-ylamino)methyl]-N,N-diethyl benzamide] | 0.2 | 90 |
| O=C1CC[C@@H](NCc2ccccc2C(=O)O)C(=O)N1 [Example 6.2, 2-[(3R)-(2,6-dioxopiperidin-3-ylamino)methyl]benzoic acid] |  | 75 |
| NNC(=O)c1ccccc1CN[C@H]1CCC(=O)NC1=O [Example 8.6, 2-[(3S)-(2,6-dioxopiperidin-3-ylamino)methyl]benzoic acid hydrazide] |  | 90 |
| 2-[(3S)-(2,6-dioxopiperidin-3-ylamino)methyl]benzyl benzoate [Example 9.2] | 1.5 | 82 |
| O=C1CC[C@H](NCc2ccccc2C(=O)N2CCCC2)C(=O)N1 [Example 8.5] | 2.0 | 80 |
| COC(=O)c1cc(SCC2CCC(=O)NC2=O)ccc1N (stereo not shown) [Example 19, 2-amino-5-(2,6-dioxopiperidin-3-ylmethylsulfanyl) methyl benzoate] | 5.0 | 66 |
| {2-[(3S)-(2,6-dioxopiperidin-3-ylamino)methyl]benzoylamino}methyl acetate [Example 8.2] | 1.8 | 70 |
| O=C1CC[C@@H](NCc2ccccc2C(=O)Nc2ccccc2)C(=O)N1 [Example 8.10, 2-[(3R)-(2,6-dioxopiperidin-3-ylamino)methyl]-N-phenyl benzamide] |  | 50 |
| COC(=O)c1cc(SCC2CCC(=O)NC2=O)ccc1[N+](=O)[O-] (stereo not shown) [Example 18, 3-(2,6-dioxopiperidin-3-ylmethylsulfanyl)-6-nitro Methylbenzoate] | 3.0 | 57 |
| CCN(CC)C(=O)c1ccccc1CN[C@H]1CCC(=O)NC1=O [Example 7, 2-[(3S)-(2,6-dioxopiperidin-3-ylamino)methyl]-N,N-diethylbenzamide] |  | 90 |
| COC(=O)c1ccccc1SCC1CCC(=O)NC1=O (stereo not shown) [Example 13.3, 2-(2,6-dioxopiperidin-3-ylmethyl)sulfanyl) methyl benzoate] | 6.0 | 50 |
| O=C1CC[C@H](NCc2ccccc2C(=O)Nc2ccccc2)C(=O)N1 [Example 8.7, 2-[(3S)-(2,6-dioxopiperidin-3-ylamino)methyl]-N-phenylbenzamide] |  | 55 |
| O=CNc1ccccc1CNC1CCC(=O)NC1=O (stereo not shown) [Example 17, N-{2-[(2,6-dioxopiperidin-3-ylamino)methyl]phenyl}Formamide] |  | 98 |
| O=C1CC[C@H](NCc2ccccc2C(=O)N2CCOCC2)C(=O)N1 [Example 8.1] | 1.8 | 90 |
| COC(=O)c1ccccc1CN[C@H]1CCC(=O)NC1=O [Example 9.1, 2-[(3S)-(2,6-dioxopiperidin-3-ylamino)methyl]methyl benzoate] | 0.1 | 90 |
| NC(=O)c1ccccc1CN[C@H]1CCC(=O)NC1=O [Example 8.3, 2-[(3S)-(2,6-dioxopiperidin-3-ylamino)methyl]benzamide] |  | 90 |
| CC(=O)Nc1ccccc1CNC1CCC(=O)NC1=O (stereo not shown) [Example 16] | 3.0 | 95 |
| CCNC(=O)c1ccccc1CN[C@H]1CCC(=O)NC1=O [Example 8.4, 2-[(3S)-(2,6-dioxopiperidin-3-ylamino)methyl]-N-ethyl benzamide] | 0.9 | 80 |
| NC(=O)c1ccccc1CN[C@@H]1CCC(=O)NC1=O [Example 8.12, 2-[(3R)-(2,6-dioxopiperidin-3-ylamino)methyl]benzamide] |  | 84 |
| O=C1CC[C@H](NCc2ccccc2C(=O)O)C(=O)N1 [Example 6.1, 2-[(3S)-(2,6-dioxopiperidin-3-ylamino)methyl]benzoic acid] |  | 85 |

Same assay, conditions: Monocyte; CD14-positive human monocytes, 1 h preincubation with test substance, 20 μg/ml LPS from E. coli, 24 hours; read-out: Inhibition of IL-12 production IC50

| Compound | IC50 [µg/mL] |
| --- | --- |
| O=C1CC[C@@H](NCc2ccccc2C(=O)O)C(=O)N1 [Example 6.2, 2-[(3R)-(2,6-dioxopiperidin-3-ylamino)methyl]benzoic acid] | 1 (≈ 3.81 µM) |
| NNC(=O)c1ccccc1CN[C@H]1CCC(=O)NC1=O [Example 8.6, 2-[(3S)-(2,6-dioxopiperidin-3-ylamino)methyl]benzoic acid hydrazide] | 0.04 (≈ 0.145 µM) |
| CCN(CC)C(=O)c1ccccc1CN[C@H]1CCC(=O)NC1=O [Example 7, 2-[(3S)-(2,6-dioxopiperidin-3-ylamino)methyl]-N,N-diethylbenzamide] | 1.5 (≈ 4.73 µM) |
| O=C1CC[C@H](NCc2ccccc2C(=O)Nc2ccccc2)C(=O)N1 [Example 8.7, 2-[(3S)-(2,6-dioxopiperidin-3-ylamino)methyl]-N-phenylbenzamide] | 0.7 (≈ 2.07 µM) |
| O=CNc1ccccc1CNC1CCC(=O)NC1=O (stereo not shown) [Example 17, N-{2-[(2,6-dioxopiperidin-3-ylamino)methyl]phenyl}Formamide] | 0.02 (≈ 0.0765 µM) |
| NC(=O)c1ccccc1CN[C@H]1CCC(=O)NC1=O [Example 8.3, 2-[(3S)-(2,6-dioxopiperidin-3-ylamino)methyl]benzamide] | 0.15 (≈ 0.574 µM) |
| NC(=O)c1ccccc1CN[C@@H]1CCC(=O)NC1=O [Example 8.12, 2-[(3R)-(2,6-dioxopiperidin-3-ylamino)methyl]benzamide] | 1 (≈ 3.83 µM) |
| O=C1CC[C@H](NCc2ccccc2C(=O)O)C(=O)N1 [Example 6.1, 2-[(3S)-(2,6-dioxopiperidin-3-ylamino)methyl]benzoic acid] | 1 (≈ 3.81 µM) |

System: not given
Test: not given
Conditions: not given

| Compound | melting point [°C] |
| --- | --- |
| O=C1CCC(NCc2ccccc2F)C(=O)N1 (racemic) (as salt: hydrochloride) [Example 2.29, 3-(2-fluorobenzylamino) piperidine-2,6-dione] | 245 to 247 |
| CN(Cc1cccc2ccccc12)C1CCC(=O)NC1=O (racemic) [Example 4.5, 3-(methylnaphth-1-ylmethylamino) piperidine-2,6-dione] | 157 to 162 |
| O=C1CC[C@H](NCc2ccccc2C(=O)Nc2ccccc2)C(=O)N1 (as salt: hydrobromid) [Example 8.7, 2-[(3S)-(2,6-dioxopiperidin-3-ylamino)methyl]-N-phenylbenzamide] | 136 to 138 |
| O=C1CCC(NCc2cccc(F)c2)C(=O)N1 (racemic) (as salt: hydrochloride) [Example 2.19, 3-(3-fluorobenzylamino) piperidine-2,6-dione] | 231 to 235 |
